Results reported in ChEMBL document CHEMBL1138068 (J Med Chem, 2006).
Calls of active or inactive are those of the source. No cut-off for these calls is given here.

Key:
[1] = target: Neuronal acetylcholine receptor subunit alpha-7 (Rattus norvegicus, UniProt Q05941); assay: Displacement of [125I]alpha-BTX from alpha-7 nAChR in rat hippocampus membrane; format: cell membranes
Cytochrome P450 2D6 = Cytochrome P450 2D6 (Homo sapiens, UniProt P10635); assay: Inhibition of CYP2D6; format: ADME
[2] = target: Serotonin 3 (5-HT3) receptor; assay: Binding affinity to 5HT3 receptor; format: protein-complex assay, Homo sapiens
[3] = target: Adrenergic receptor alpha-1 (Homo sapiens, UniProt P35348+P25100+P35368); assay: Binding affinity to adrenergic alpha-1 receptor; format: protein assay
[4] = target: Adrenergic receptor alpha-2 (Homo sapiens, UniProt P08913+P18825+P18089); assay: Binding affinity to adrenergic alpha2 receptor; format: protein assay
Adrenergic receptor beta = Adrenergic receptor beta (Homo sapiens, UniProt P08588+P07550+P13945); assay: Binding affinity to adrenergic beta receptor; format: protein assay
D(1A) dopamine receptor = D(1A) dopamine receptor (Homo sapiens, UniProt P21728); assay: Binding affinity to D1 receptor
D(2) dopamine receptor = D(2) dopamine receptor (Homo sapiens, UniProt P14416); assay: Binding affinity to D2 receptor
D(2) dopamine receptor, sequence (P14416 whole entry): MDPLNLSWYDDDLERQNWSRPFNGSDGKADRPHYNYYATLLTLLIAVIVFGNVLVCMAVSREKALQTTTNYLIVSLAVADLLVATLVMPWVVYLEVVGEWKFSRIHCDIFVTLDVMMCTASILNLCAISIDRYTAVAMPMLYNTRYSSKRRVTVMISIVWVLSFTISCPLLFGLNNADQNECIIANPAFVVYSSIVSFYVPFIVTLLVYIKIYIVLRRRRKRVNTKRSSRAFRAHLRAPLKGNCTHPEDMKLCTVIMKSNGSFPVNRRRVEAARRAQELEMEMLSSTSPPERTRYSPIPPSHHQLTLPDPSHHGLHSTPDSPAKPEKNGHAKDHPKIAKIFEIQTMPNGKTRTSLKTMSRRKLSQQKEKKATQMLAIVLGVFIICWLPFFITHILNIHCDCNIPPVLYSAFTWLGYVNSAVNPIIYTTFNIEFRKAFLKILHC

D(3) dopamine receptor = D(3) dopamine receptor (Homo sapiens, UniProt P35462); assay: Binding affinity to D3 receptor
D(3) dopamine receptor, sequence (P35462 whole entry): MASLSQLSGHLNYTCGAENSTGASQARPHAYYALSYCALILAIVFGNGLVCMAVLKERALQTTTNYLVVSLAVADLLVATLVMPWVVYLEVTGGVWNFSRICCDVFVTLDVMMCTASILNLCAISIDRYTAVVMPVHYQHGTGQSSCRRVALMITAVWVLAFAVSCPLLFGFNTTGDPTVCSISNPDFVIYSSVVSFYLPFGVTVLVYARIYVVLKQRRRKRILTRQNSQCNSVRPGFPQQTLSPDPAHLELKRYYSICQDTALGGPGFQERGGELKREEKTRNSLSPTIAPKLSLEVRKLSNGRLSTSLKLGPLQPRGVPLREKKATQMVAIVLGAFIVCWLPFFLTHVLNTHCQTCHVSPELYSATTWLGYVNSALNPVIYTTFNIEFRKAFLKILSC

D(4) dopamine receptor = D(4) dopamine receptor (Homo sapiens, UniProt P21917); assay: Binding affinity to D4 receptor
D(4) dopamine receptor, sequence (P21917 whole entry): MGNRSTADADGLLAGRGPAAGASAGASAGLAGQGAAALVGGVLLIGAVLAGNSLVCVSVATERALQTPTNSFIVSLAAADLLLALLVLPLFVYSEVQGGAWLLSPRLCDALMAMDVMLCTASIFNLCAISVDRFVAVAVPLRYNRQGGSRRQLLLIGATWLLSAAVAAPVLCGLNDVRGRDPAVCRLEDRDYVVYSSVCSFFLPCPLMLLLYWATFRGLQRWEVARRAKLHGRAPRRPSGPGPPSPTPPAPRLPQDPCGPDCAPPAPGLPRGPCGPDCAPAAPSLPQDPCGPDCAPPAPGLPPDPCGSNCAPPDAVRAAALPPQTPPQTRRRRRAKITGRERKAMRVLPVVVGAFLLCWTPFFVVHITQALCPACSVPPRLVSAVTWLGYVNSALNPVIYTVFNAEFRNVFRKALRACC

Histamine H1 receptor = Histamine H1 receptor (Homo sapiens, UniProt P35367); assay: Binding affinity to histamine H1 receptor
Histamine H3 receptor = Histamine H3 receptor (Homo sapiens, UniProt Q9Y5N1); assay: Binding affinity to histamine H3 receptor
[5] = target: Glutamate receptor ionotropic AMPA (Homo sapiens, UniProt P42261+P42262+P42263+P48058); assay: Binding affinity to AMPA receptor; format: protein-complex assay
[6] = target: Glutamate [NMDA] receptor; assay: Binding affinity to NMDA receptor PCP site; format: protein-complex assay, Homo sapiens
[7] = Cmax in rat at 30 mg/kg, po; format: ADME, organism-based; parameters: dose 30 mg/kg, route oral; conditions: in vivo
[8] = Tmax in rat at 10 mg/kg, po; format: ADME, organism-based; parameters: dose 10 mg/kg, route oral; conditions: in vivo
[9] = Tmax in rat at 30 mg/kg, po; format: ADME, organism-based; parameters: dose 30 mg/kg, route oral; conditions: in vivo
[10] = Half life in rat at 3 mg/kg, iv; format: ADME, organism-based; parameters: dose 3 mg/kg, route intravenous; conditions: in vivo
[11] = Half life in rat at 10 mg/kg, po; format: ADME, organism-based; parameters: dose 10 mg/kg, route oral; conditions: in vivo
[12] = Half life in rat at 30 mg/kg, po; format: ADME, organism-based; parameters: dose 30 mg/kg, route oral; conditions: in vivo
[13] = Clearance in rat at 3 mg/kg, iv; format: ADME, organism-based; parameters: dose 3 mg/kg, route intravenous; conditions: in vivo
[14] = Volume of distribution in rat at 3 mg/kg, iv; format: ADME, organism-based; parameters: dose 3 mg/kg, route intravenous; conditions: in vivo, read-out: Vss
[15] = Oral bioavailability in rat at 10 mg/kg, po; format: ADME, organism-based; conditions: in vivo
[16] = Oral bioavailability in rat at 30 mg/kg, po; format: ADME, organism-based; conditions: in vivo
[17] = Permeability in rat assessed as ratio of concentration in brain to plasma at 10 mg/kg, po; format: ADME, organism-based; parameters: dose 10 mg/kg, route oral; conditions: brain and plasma, read-out: BBR
[18] = AUC (0-infinity) in monkey at 3 mg/kg, iv; format: ADME, organism-based, Macaca mulatta; parameters: dose 3 mg/kg, route intravenous, time infinity; conditions: rhesus monkey, plasma
[19] = AUC (0-infinity) in monkey at 1 mg/kg, po; format: ADME, organism-based, Macaca mulatta; parameters: time infinity, dose 1 mg/kg, route oral; conditions: rhesus monkey, plasma
[20] = AUC (0-infinity) in monkey at 3 mg/kg, po; format: ADME, organism-based, Macaca mulatta; parameters: time infinity, dose 3 mg/kg, route oral; conditions: rhesus monkey, plasma
[21] = AUC (0-infinity) in monkey at 10 mg/kg, po; format: ADME, organism-based, Macaca mulatta; parameters: time infinity, dose 10 mg/kg, route oral; conditions: rhesus monkey, plasma
[22] = Cmax in monkey at 3 mg/kg, iv; format: ADME, organism-based, Macaca mulatta; parameters: dose 3 mg/kg, route intravenous; conditions: rhesus monkey, in vivo
[23] = Cmax in monkey at 1 mg/kg, po; format: ADME, organism-based, Macaca mulatta; parameters: dose 1 mg/kg, route oral; conditions: rhesus monkey, in vivo
[24] = Cmax in monkey at 3 mg/kg, po; format: ADME, organism-based, Macaca mulatta; parameters: dose 3 mg/kg, route oral; conditions: rhesus monkey, in vivo
[25] = Cmax in monkey at 10 mg/kg, po; format: ADME, organism-based, Macaca mulatta; parameters: dose 10 mg/kg, route oral; conditions: rhesus monkey, in vivo
[26] = Tmax in monkey at 3 mg/kg, iv; format: ADME, organism-based, Macaca mulatta; parameters: dose 3 mg/kg, route intravenous; conditions: rhesus monkey, in vivo
[27] = Tmax in monkey at 1 mg/kg, po; format: ADME, organism-based, Macaca mulatta; parameters: dose 1 mg/kg, route oral; conditions: rhesus monkey, in vivo
[28] = Tmax in monkey at 3 mg/kg, po; format: ADME, organism-based, Macaca mulatta; parameters: dose 3 mg/kg, route oral; conditions: rhesus monkey, in vivo
[29] = Tmax in monkey at 10 mg/kg, po; format: ADME, organism-based, Macaca mulatta; parameters: dose 10 mg/kg, route oral; conditions: rhesus monkey, in vivo
[30] = Half life in monkey at 3 mg/kg, iv; format: ADME, organism-based, Macaca mulatta; parameters: dose 3 mg/kg, route intravenous; conditions: rhesus monkey, in vivo
[31] = Half life in monkey at 1 mg/kg, po; format: ADME, organism-based, Macaca mulatta; parameters: dose 1 mg/kg, route oral; conditions: rhesus monkey, in vivo
[32] = Half life in monkey at 3 mg/kg, po; format: ADME, organism-based, Macaca mulatta; parameters: dose 3 mg/kg, route oral; conditions: rhesus monkey, in vivo
[33] = Half life in monkey at 10 mg/kg, po; format: ADME, organism-based, Macaca mulatta; parameters: dose 10 mg/kg, route oral; conditions: rhesus monkey, in vivo
[34] = Clearance in monkey at 3 mg/kg, iv; format: ADME, organism-based, Macaca mulatta; parameters: dose 3 mg/kg, route intravenous; conditions: rhesus monkey, in vivo
[35] = Volume of distribution in monkey at 3 mg/kg, iv; format: ADME, organism-based, Macaca mulatta; parameters: dose 3 mg/kg, route intravenous; conditions: rhesus monkey, in vivo, read-out: Vss
[36] = Oral bioavailability in monkey at 1 mg/kg, po; format: ADME, organism-based, Macaca mulatta; conditions: rhesus monkey, in vivo
[37] = Cmax in rat at 10 mg/kg, po; format: ADME, organism-based; parameters: dose 10 mg/kg, route oral; conditions: in vivo
[38] = Oral bioavailability in monkey at 3 mg/kg, po; format: ADME, organism-based, Macaca mulatta; conditions: rhesus monkey, in vivo
[39] = Oral bioavailability in monkey at 10 mg/kg, po; format: ADME, organism-based, Macaca mulatta; conditions: rhesus monkey, in vivo
Rattus norvegicus [40] = assay: Effect on MK-801-induced sensory gating in Wistar rat at 1 mg/kg, sc; format: functional, organism-based; parameters: dose 1 mg/kg
Rattus norvegicus [41] = assay: Increase in extracellular dopamine level in Wistar rat medial prefrontal cortex at 10 mg/kg, po; format: functional, organism-based; parameters: dose 10 mg/kg
Rattus norvegicus [42] = assay: Increase in extracellular dopamine level in Wistar rat medial prefrontal cortex at 30 mg/kg, po; format: functional, organism-based; parameters: dose 30 mg/kg
Rattus norvegicus [43] = assay: Reverse activity against scopolamine-induced impairment of cognitive performance in Wistar rat at 3 mg/kg, po by 8-arm radial maze task method; format: functional, organism-based; parameters: dose 3 mg/kg
Rattus norvegicus [44] = assay: Reverse activity against scopolamine-induced impairment of cognitive performance in Wistar rat at 10 mg/kg, po by 8-arm radial maze task method; format: functional, organism-based; parameters: dose 10 mg/kg
Cytochrome P450 1A2 = Cytochrome P450 1A2 (Homo sapiens, UniProt P05177); assay: Inhibition of CYP1A2; format: ADME
Cytochrome P450 2C9 = Cytochrome P450 2C9 (Homo sapiens, UniProt P11712); assay: Inhibition of CYP2C9; format: ADME
Cytochrome P450 2C9, sequence (P11712 whole entry): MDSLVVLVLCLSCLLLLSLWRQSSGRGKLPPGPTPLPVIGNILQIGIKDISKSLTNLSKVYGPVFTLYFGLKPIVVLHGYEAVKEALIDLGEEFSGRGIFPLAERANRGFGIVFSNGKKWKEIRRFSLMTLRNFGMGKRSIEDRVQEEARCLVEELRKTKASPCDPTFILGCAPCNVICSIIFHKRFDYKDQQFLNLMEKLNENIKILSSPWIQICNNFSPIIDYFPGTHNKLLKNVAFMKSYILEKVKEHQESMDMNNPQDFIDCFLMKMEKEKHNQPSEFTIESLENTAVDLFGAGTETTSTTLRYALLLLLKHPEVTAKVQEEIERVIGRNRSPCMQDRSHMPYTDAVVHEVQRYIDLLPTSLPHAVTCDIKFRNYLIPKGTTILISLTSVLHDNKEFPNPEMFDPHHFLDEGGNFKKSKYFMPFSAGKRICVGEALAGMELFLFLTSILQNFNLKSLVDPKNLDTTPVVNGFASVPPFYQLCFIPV

Cytochrome P450 2C19 = Cytochrome P450 2C19 (Homo sapiens, UniProt P33261); assay: Inhibition of CYP2C19; format: ADME
Cytochrome P450 3A4 = Cytochrome P450 3A4 (Homo sapiens, UniProt P08684); assay: Inhibition of CYP3A4; format: ADME
Cytochrome P450 3A4, sequence (P08684 whole entry): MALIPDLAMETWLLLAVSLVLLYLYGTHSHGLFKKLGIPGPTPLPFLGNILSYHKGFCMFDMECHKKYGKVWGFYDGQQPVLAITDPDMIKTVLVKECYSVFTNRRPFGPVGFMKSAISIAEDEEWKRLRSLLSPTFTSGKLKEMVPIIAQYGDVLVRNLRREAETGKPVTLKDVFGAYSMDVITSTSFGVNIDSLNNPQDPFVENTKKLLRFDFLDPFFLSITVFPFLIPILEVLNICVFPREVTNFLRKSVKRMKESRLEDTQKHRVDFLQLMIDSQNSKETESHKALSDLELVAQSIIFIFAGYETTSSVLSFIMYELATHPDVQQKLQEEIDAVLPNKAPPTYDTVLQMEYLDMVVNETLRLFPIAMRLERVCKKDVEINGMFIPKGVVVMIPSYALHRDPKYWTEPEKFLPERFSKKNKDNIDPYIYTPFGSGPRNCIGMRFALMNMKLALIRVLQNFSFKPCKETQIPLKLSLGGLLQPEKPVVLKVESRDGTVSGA

[45] = target: Neuronal acetylcholine receptor subunit alpha-7 (Homo sapiens) (UniProt P36544); assay: Activity at alpha-7 nAChR assessed as stimulation of relative inward current in cultured hippocampal neurons relative to choline; format: functional, tissue-based; conditions: Hippocampus, filed as partial agonist
[46] = target: Neuronal acetylcholine receptor; alpha4/beta2 (Rattus norvegicus, UniProt P09483+P12390); assay: Inhibition of [3H]Cytisine binding to alpha-4-beta-2 nACh receptor in rat cerebral cortex membrane; format: cell membranes
Neuronal acetylcholine receptor; alpha4/beta2, sequence (P09483 whole entry): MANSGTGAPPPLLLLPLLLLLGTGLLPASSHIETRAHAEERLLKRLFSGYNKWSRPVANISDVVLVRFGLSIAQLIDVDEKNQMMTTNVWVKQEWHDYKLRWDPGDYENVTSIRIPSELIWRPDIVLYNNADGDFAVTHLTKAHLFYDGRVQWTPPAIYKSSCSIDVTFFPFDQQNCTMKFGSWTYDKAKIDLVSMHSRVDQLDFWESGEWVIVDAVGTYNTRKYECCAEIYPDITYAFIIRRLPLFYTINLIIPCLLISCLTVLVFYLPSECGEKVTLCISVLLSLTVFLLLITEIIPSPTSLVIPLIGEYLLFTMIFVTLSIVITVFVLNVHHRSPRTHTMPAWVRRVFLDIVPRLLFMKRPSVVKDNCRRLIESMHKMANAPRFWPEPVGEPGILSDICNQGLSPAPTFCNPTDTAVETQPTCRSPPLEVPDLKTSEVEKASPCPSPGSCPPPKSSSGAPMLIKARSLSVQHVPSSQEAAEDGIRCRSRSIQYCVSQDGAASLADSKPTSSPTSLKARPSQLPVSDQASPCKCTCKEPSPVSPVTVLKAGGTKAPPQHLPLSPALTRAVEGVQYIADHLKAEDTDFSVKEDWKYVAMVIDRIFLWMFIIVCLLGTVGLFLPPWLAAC
Neuronal acetylcholine receptor; alpha4/beta2, sequence (P12390 whole entry): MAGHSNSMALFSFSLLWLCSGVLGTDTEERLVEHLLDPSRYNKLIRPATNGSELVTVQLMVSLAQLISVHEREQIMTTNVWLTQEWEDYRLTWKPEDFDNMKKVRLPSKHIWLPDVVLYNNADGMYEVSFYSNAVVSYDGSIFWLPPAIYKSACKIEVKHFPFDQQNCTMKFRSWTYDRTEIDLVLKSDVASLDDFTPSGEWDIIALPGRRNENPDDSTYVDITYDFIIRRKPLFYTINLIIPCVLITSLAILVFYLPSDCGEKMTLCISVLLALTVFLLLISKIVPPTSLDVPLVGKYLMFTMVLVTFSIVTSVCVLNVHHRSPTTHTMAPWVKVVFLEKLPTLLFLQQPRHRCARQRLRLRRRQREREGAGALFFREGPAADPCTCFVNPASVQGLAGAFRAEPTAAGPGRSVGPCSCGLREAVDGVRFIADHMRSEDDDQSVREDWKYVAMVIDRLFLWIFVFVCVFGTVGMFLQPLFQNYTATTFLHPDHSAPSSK

[47] = target: Muscarinic acetylcholine receptor; assay: Binding affinity to muscarinic receptor; format: protein assay, Homo sapiens
[48] = target: 5-hydroxytryptamine receptor 1A (Homo sapiens, UniProt P08908); assay: Binding affinity to 5HT1A receptor
5-hydroxytryptamine receptor 1A, sequence (P08908 whole entry): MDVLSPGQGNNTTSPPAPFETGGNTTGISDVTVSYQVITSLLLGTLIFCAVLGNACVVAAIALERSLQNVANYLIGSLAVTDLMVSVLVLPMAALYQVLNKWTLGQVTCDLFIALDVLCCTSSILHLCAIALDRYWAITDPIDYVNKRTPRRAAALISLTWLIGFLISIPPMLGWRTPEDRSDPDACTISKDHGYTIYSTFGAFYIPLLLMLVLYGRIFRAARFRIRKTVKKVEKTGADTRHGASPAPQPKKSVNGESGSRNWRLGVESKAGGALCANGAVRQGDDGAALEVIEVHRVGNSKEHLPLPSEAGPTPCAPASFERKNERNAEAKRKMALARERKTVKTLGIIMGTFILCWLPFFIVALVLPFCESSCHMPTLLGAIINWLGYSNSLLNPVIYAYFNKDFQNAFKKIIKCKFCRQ

[49] = target: Serotonin 2 (5-HT2) receptor (Homo sapiens, UniProt P41595+P28223+P28335); assay: Binding affinity to 5HT2 receptor; format: protein assay
[50] = target: Glutamate [NMDA] receptor; assay: Binding affinity to NMDA receptor glycine site; format: protein-complex assay, Homo sapiens
[51] = target: 5-hydroxytryptamine receptor 3A (Cavia porcellus) (UniProt O70212); assay: Antagonist activity against 5HT3 receptor assessed as inhibition of 5HT-induced contraction of guinea pig ileum; format: functional, tissue-based
[52] = AUC (0-infinity) in rat at 10 mg/kg, po; format: ADME, organism-based; parameters: time infinity, dose 10 mg/kg, route oral; conditions: plasma
[53] = AUC (0-infinity) in rat at 30 mg/kg, po; format: ADME, organism-based; parameters: time infinity, dose 30 mg/kg, route oral; conditions: plasma

Neuronal acetylcholine receptor subunit alpha-7, sequence (Q05941 whole entry): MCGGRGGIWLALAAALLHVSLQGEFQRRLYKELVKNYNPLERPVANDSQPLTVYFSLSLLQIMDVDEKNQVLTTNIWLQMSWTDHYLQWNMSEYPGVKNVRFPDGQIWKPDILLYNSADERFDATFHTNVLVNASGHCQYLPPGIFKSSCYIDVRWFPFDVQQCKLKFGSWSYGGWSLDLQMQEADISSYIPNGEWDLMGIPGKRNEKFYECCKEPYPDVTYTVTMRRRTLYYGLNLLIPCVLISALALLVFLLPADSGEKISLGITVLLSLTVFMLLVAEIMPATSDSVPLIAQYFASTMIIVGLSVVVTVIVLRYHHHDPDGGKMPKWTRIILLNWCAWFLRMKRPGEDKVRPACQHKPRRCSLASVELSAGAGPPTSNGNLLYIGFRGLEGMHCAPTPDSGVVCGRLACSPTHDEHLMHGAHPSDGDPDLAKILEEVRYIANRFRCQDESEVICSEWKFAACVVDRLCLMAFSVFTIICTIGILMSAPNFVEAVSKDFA
Cytochrome P450 2D6, sequence (P10635 whole entry): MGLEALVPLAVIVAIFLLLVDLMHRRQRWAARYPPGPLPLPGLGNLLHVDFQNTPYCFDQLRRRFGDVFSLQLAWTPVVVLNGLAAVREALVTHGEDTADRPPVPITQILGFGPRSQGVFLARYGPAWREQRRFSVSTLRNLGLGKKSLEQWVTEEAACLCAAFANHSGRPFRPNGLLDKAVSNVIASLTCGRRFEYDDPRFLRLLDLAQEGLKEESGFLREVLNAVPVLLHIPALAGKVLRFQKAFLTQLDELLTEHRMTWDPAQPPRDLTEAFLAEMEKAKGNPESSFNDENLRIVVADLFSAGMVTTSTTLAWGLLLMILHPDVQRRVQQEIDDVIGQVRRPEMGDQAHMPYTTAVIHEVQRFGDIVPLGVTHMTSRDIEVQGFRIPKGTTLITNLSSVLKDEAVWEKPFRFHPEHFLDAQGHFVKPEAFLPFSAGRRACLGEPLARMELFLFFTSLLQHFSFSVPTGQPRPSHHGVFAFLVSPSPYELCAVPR

O=C1O[C@]2(CN3CCC2CC3)CN1c1ccc2c(c1)OCCO2
Ki [1]: 0.175 µM

Cc1cc2cc(N3C[C@@]4(CN5CCC4CC5)OC3=O)ccc2s1
IC50 (Cytochrome P450 2D6): > 30 µM

CCc1c(C)oc2ccc(N3C[C@@]4(CN5CCC4CC5)OC3=O)cc12
Ki [1]: 0.015 µM

Cc1coc2ccc(N3C[C@@]4(CN5CCC4CC5)OC3=O)cc12
IC50 [2]: 0.01 µM | IC50 [3]: > 10 µM | IC50 [4]: > 10 µM | IC50 (Adrenergic receptor beta): > 10 µM | IC50 (D(1A) dopamine receptor): > 10 µM | IC50 (D(2) dopamine receptor): > 10 µM | IC50 (D(3) dopamine receptor): > 10 µM | IC50 (D(4) dopamine receptor): > 10 µM | IC50 (Histamine H1 receptor): > 10 µM | IC50 (Histamine H3 receptor): > 10 µM | IC50 [5]: > 10 µM | IC50 [6]: > 10 µM | Cmax [7]: 618 ng/mL | Tmax [8]: 0.44 h | Tmax [9]: 0.38 h | half-life [10]: 3.3 h | half-life [11]: 3 h | half-life [12]: 1.7 h | clearance [13]: 83.3 mL/min/kg | Vd [14]: 7.59 L/kg | bioavailability [15]: 10.5% | bioavailability [16]: 17.3% | Kp [17]: 10.2 | AUC(0-inf) [18]: 732 ng·h/mL | AUC(0-inf) [19]: 63 ng·h/mL | AUC(0-inf) [20]: 387 ng·h/mL | AUC(0-inf) [21]: 2020 ng·h/mL | Cmax [22]: 288 ng/mL | Cmax [23]: 9.1 ng/mL | Cmax [24]: 75.5 ng/mL | Cmax [25]: 384 ng/mL | Tmax [26]: 0.36 h | Tmax [27]: 2 h | Tmax [28]: 3.3 h | Tmax [29]: 2.3 h | half-life [30]: 1.9 h | half-life [31]: 4.2 h | half-life [32]: 5.4 h | half-life [33]: 6 h | clearance [34]: 70.2 mL/min/kg | Vd [35]: 10.7 L/kg | bioavailability [36]: 25.8% | Cmax [37]: 120 ng/mL | bioavailability [38]: 57.2% | bioavailability [39]: 82.8% | Activity (Rattus norvegicus [40]): Active | Activity (Rattus norvegicus [41]): Active | Activity (Rattus norvegicus [42]): Active | Activity (Rattus norvegicus [43]): Dose-dependent effect | Activity (Rattus norvegicus [44]): Dose-dependent effect | Ki [1]: 0.003 µM | IC50 (Cytochrome P450 2D6): > 30 µM | Activity (Cytochrome P450 1A2): Not Active | Activity (Cytochrome P450 2C9): Not Active | Activity (Cytochrome P450 2C19): Not Active | Activity (Cytochrome P450 3A4): Not Active | Activity [45]: Partial agonist | IC50 [46]: > 10 µM | IC50 [47]: > 10 µM | IC50 [48]: > 10 µM | IC50 [49]: > 10 µM | IC50 [50]: > 10 µM | Activity [51]: Active | AUC(0-inf) [52]: 225 ng·h/mL | AUC(0-inf) [53]: 1010 ng·h/mL

O=C1OC2(CN3CCC2CC3)CN1c1ccc2ncccc2c1 (single isomer, unassigned)
IC50 [1]: > 1 µM

Cn1c(=O)oc2cc(N3CC4(CN5CCC4CC5)OC3=O)ccc21 (single isomer, unassigned)
IC50 [1]: > 1 µM

CCc1coc2ccc(N3C[C@@]4(CN5CCC4CC5)OC3=O)cc12
Ki [1]: 0.008 µM | IC50 (Cytochrome P450 2D6): 21 µM
